{
  "source": "paper PMC7559125",
  "about": "(Pathogens, 2020)",
  "key": {"[1]": {"tested_on": "A/Yokohama/59/2016 (wild-type)", "test": "microbe, parasite or virus in culture", "settings": "Influenza A virus, AX4"}, "[2]": {"tested_on": "A/Sakai/23/2013 (wild-type)", "test": "microbe, parasite or virus in culture", "settings": "Influenza A virus, AX4"}, "[3]": {"tested_on": "A/Yokohama/40/2016 (wild-type)", "test": "microbe, parasite or virus in culture", "settings": "Influenza A virus, AX4"}, "[4]": {"tested_on": "A/Yokohama/40/2016 (wild-type)", "test": "microbe, parasite or virus in culture", "settings": "Influenza A virus"}, "[5]": {"tested_on": "A/Sakai/23/2013 (wild-type)", "test": "microbe, parasite or virus in culture", "settings": "Influenza A virus"}, "[6]": {"tested_on": "A/Yokohama/59/2016 (wild-type)", "test": "microbe, parasite or virus in culture", "settings": "Influenza A virus"}, "[7]": {"biological_target": "neuraminidase of A/Yokohama/59/2016 (wild-type) (Influenza A virus, UniProt A0A0X9QTS2)"}, "[8]": {"biological_target": "neuraminidase of A/Sakai/23/2013 (wild-type) (Influenza A virus, UniProt W8DXJ8)"}, "[9]": {"biological_target": "neuraminidase of A/Yokohama/40/2016 (wild-type) (Influenza A virus, UniProt A0A0X9QTS2)"}},
  "data": [
    {"smiles": "NC(=O)c1nc(F)c[nH]c1=O", "note": "[Favipiravir, favipiravir]", "values": [
      {"measurement": "EC50", "setting": "[1]", "result": 8810, "unit": "nM"},
      {"measurement": "EC50", "setting": "[2]", "result": 6640, "unit": "nM"},
      {"measurement": "EC50", "setting": "[3]", "result": 10000, "unit": "nM"}
    ]},
    {"smiles": "O=C1c2c(O)c(=O)ccn2N([C@@H]2c3ccccc3SCc3c2ccc(F)c3F)[C@@H]2COCCN12", "note": "[Baloxavir, Baloxavir acid]", "values": [
      {"measurement": "IC50", "setting": "[4]", "result": 6.16, "unit": "nM"},
      {"measurement": "IC50", "setting": "[5]", "result": 4.05, "unit": "nM"},
      {"measurement": "IC50", "setting": "[6]", "result": 11, "unit": "nM"}
    ]},
    {"smiles": "CCC(CC)[C@H](NC(C)=O)[C@@H]1[C@H](O)[C@@H](C(=O)O)C[C@H]1N=C(N)N.O.O.O", "note": "[Peramivir, peramivir trihydrate]", "values": [
      {"measurement": "IC50", "setting": "[7]", "result": 0.08, "unit": "nM"},
      {"measurement": "IC50", "setting": "[8]", "result": 0.01, "unit": "nM"},
      {"measurement": "IC50", "setting": "[9]", "result": 0.07, "unit": "nM"}
    ]}
  ]
}
